Values of other authors as cited in patent publication US8883820B2, “Triazole derivatives as kinase inhibitors” (Cellzome Ltd., priority 2006, dated 2014).

Key:
[1] = tested on: collagen II-antibody-induced arthritis; conditions: oral, wildtype mice
[2] = tested on: lymphocyte-dependent rheumatoid arthritis induced by direct collagen II injection; conditions: oral
[3] = tested on: systemic lupus erythematosus (SLE); conditions: intraperitoneal administration

Compound	clinical and histologic signs of collagen II-antibody-induced arthritis [1]	joint inflammation and damage [2]	CD4+ T-cell populations [3]	glomerulonephritis [3]	life span [3]	cardioprotection (myocardial infarction; dosing after myocardial reperfusion (up to 3 hours after))	edema and inflammation in response to multiple mediators (myocardial infarction; in vivo)
O=C1NC(=O)/C(=C\c2ccc3nccnc3c2)S1 [AS-605240]	reduced clinical and histologic signs	decreased joint inflammation and damage	reduced CD4+ T-cell populations	reduced glomerulonephritis	prolonged life span	–	–
Nc1nc(N)c2nc(-c3cccc(O)c3)c(-c3cccc(O)c3)nc2n1 [TG100-115]	–	–	–	–	–	provided cardioprotection	potently inhibits
